According to patent publication US10259815B2, “Gabaergic ligands and their uses” (UWM Research Foundation, Inc., priority 2015, dated 2019):
Entries after “also recorded” stand apart in the source; their conditions may differ.

Columns and labels:
CYP2D6 = CYP2D6 (Homo sapiens, UniProt P10635); experiment: CYP substrate assessment, CYP2D6
Male CD-1 mice = experiment: Maximal electroshock (MES)-induced convulsion protection; assay type: in vivo; settings: i.p. 30 minutes prior to test
Procedure: Male CD-1 mice (n=10) were dosed i.p. 30 minutes prior to being tested. Results were analyzed using ANOVA (Dunnett's test versus vehicle: *P<0.05).
The maximal electroshock (MES) assay is designed to determine how well a test compound can prevent seizures induced by applying a voltage stimuli to a mouse.
Mice were subjected to electrical induced tonic seizures and examined for anticonvulsant effects 30 minutes after treatment. Mice were then given a 7 mA electroshock using a Wahlquist Model H for 0.2 seconds and observed for the presence or absence of seizure activity. Each mouse is tested only once and euthanized immediately following the test.

[1] = Single-dose pharmacokinetics and brain concentrations, IV and IP, rats; assay type: in vivo, Sprague-Dawley rats
Procedure: The single-dose pharmacokinetics were determined in femoral artery/vein cannulated Sprague-Dawley rats. The rats received a 1 mg/kg intravenous and 10 mg/kg oral gavage dose of compound. Blood samples were collected at 0.08 (IV only), 0.25, 0.5, 1, 2, 4, 8, 12, and 24 hours after initiation of compound administration. Plasma was obtained via centrifugation. Plasma samples were then analyzed by LC-MS, and pharmacokinetic parameters calculated using Watson (version 7.4; Thermo Fisher Scientific). Calculated parameters include clearance (Cl), volume of distribution (Vdss), area-under-the-curve (AUC), half-life (T½), maximum plasma concentration (Cmax), time of maximum concentration (Tmax), and bioavailability (% F).
Male Sprague-Dawley rats were given either a 1 mg/kg […] dose or 10 mg/kg i.p. dose. Plasma concentrations were taken at 0.08, 0.25, 0.5, 1.0, 2, 4, 8, 12, and 24 hours (three rats per time point for each dose).

Male Sprague-Dawley rats [2] = experiment: PTZ-induced seizure threshold; assay type: in vivo
Procedure: Results were analyzed using ANOVA (Dunnett's test: *P<0.05).
After a pretreatment of test compound, MET was intravenously administered to a test subject until a convulsions were observed.
Each animal was used only once and was euthanized post testing. Results were analyzed using ANOVA (Dunnett's test: *P<0.05).

[3] = Pharmacokinetics and brain concentration after 10 mg/kg P.O. dose, rats; assay type: in vivo
Procedure: In a 10 mg/kg oral dose in rats, a concentration of 644 ng/g of KRM-II-81 was found unbound in the brain, indicating a great pharmacokinetic-profile.
Although these are different species, the numbers can still be compared.

Male NIH Swiss mice = experiment: Marble burying assay (anxiolytic); assay type: in vivo
Procedure: Male NIH Swiss mice (n=10) were dosed i.p. with vehicle (1% carboxymethyl cellulose) or one of the test compounds (10 or 30 mg/kg) 30 minutes prior to being tested in the marble burying assay.
The marble burying assay is designed to measure the anxiolytic-effect of a compound. When mice are nervous, they will bury marbles. As there becomes a decrease in amount of marbles buried, the better anxiolytic effect of a compound.
The marble burying assay is used to determine the anxiolytic activity of a given compound. Mice are placed in a tub containing 20 marbles placed over a bed of sawdust. Defensive burying (Broekkamp 1986) is the natural reaction for the mice. When given an anxiolytic, such as diazepam, the mice are less likely to defensively bury the marbles.
Experiments were carried out by the methods described in Li et al. (Life Sciences 2006, 78, 1933-1939). Separate groups of mice were used in these experiments and were conducted in a dimly lit testing room. After 60 min acclimation to the experimental room, mice were placed in a 17×28×12 cm high plastic tub with […] sawdust shavings (Harlan Sani-Chips, Harlan-Teklad, Indianapolis, Ind., USA) on the floor, which was covered with 20 blue marbles (1.5 cm diameter) placed in the center. […] The number of marbles buried (⅔ covered with sawdust) was counted and submitted to inter-observer reliability assessment.

Male Sprague-Dawley rats [4] = experiment: von Frey filament test in spinal nerve ligated (SNL) rats; assay type: in vivo
Procedure: FIG. 11 is a graph of time versus withdrawal threshold for KRM-II-81, Gabapentin, and vehicle, showing the effect of KRM-II-81 on antihyperalgesia in the von Frey filament assay. Male Sprague-Dawley rats (n=5) were dosed i.p. either vehicle, KRM-II-81 (30 mg/kg), or gabapentin (50 mg/kg) and tested in the von Frey filament assay after undergoing SNL 90 days prior. Results were analyzed using ANOVA (Dunnett's test: *P<0.05).
The von Frey filament test is used to test for antihyperalgesia, or an increased sensitivity to pain. […] The von Frey filaments are used to apply pressure to the forelimbs of test subjects at set amounts. When pressure becomes too great, the forelimb is withdrawn and the amount of force applied recorded. The spinal nerve ligation induced hyperalgesia, reducing the amount of force a limb can take before being withdrawn.
Test compounds were given to test the effectiveness of combating the hyperalgesic effect of SNL. Male Sprague-Dawley rats went through SNL at least 90 days prior to the von Frey testing. Rats were first tested without given an injection to determine a baseline. Following baseline establishment, rats (n=5 for all groups) were dosed i.p. with vehicle (1% carboxymethyl cellulose), KRM-II-81 (30 mg/kg), or gabapentin (50 mg/kg). Subjects were then tested every hour for four hours to determine the antihyperalgesic effect of the test compounds. For testing, pressure using von Frey filaments was applied to the forelimb of the rat. Pressure was increased until the limb was withdrawn, and the amount of pressure was recorded.

CYP3A4 = CYP3A4 (Homo sapiens, UniProt P08684); experiment: CYP substrate assessment, CYP3A4
Sequence of CYP3A4 (P08684 whole entry): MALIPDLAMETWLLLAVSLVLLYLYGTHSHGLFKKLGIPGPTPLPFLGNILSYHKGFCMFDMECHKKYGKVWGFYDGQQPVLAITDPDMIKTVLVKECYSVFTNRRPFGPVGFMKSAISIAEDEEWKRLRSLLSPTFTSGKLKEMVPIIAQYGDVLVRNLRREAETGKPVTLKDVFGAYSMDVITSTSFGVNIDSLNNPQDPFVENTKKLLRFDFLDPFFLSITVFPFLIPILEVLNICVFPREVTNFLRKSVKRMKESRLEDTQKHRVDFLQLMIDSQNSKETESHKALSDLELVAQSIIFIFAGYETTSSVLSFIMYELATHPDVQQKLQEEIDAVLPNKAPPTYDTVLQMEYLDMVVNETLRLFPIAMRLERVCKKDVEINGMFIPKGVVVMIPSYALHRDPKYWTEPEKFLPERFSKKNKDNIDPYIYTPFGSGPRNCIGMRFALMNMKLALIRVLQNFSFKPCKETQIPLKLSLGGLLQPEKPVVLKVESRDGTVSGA

Sequence of CYP2D6 (P10635 whole entry): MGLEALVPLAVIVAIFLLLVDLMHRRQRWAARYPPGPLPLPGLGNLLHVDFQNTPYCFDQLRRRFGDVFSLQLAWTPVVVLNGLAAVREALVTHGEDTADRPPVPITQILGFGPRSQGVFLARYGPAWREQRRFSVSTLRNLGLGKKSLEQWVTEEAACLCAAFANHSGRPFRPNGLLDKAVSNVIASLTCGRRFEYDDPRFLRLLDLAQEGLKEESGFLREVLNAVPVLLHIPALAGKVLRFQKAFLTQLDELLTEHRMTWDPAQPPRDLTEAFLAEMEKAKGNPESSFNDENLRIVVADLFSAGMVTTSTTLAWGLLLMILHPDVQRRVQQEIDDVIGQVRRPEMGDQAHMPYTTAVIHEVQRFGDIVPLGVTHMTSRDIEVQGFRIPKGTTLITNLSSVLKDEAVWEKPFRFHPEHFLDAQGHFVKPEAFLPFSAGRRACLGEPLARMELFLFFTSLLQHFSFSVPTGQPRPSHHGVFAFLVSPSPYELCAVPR

C#Cc1ccc2c(c1)C(c1ccccn1)=NCc1c(-c3cnco3)ncn1-2 [KRM-II-81, 5-(8-Ethynyl-6-(pyridin-2-yl)-4H-benzo[f]imidazo[1,5-a][1,4]diazepin-3-yl)oxazole]
substrate of CYP2D6 (CYP2D6): not found to be a substrate | protection against MES-induced seizures (Male CD-1 mice): greater effectiveness than HZ-166; also recorded: fully protected against seizure induction | mean clearance ([1]; 1 mg/kg IV dose in rat): 21.7 mL/min/kg | mean AUC ([1]; 10 mg/kg IP dose in rat): 16.5 µM·h | mean IP T ½ ([1]; 10 mg/kg IP dose in rat): 3.1 h | mean bioavailability ([1]; 10 mg/kg IP dose in rat): 69% | Cmax ([1]; 10 mg/kg IP dose in rat, plasma): 3.09 µM | half-life ([1]; Sprague-Dawley, plasma, 1 mg/kg IV dose in rat, read-out: mean T ½ (converted)): 1.4 h | Vd ([1]; Sprague-Dawley, plasma, 1 mg/kg IV dose in rat, read-out: mean Vdss): 1.4 L/kg | concentration at 1 h ([1]; male, Sprague-Dawley, rat, brain, intraperitoneal, 10 mg/kg IP dose, 1 hour): 6.63 µM | concentration at 4 h ([1]; male, Sprague-Dawley, rat, brain, intraperitoneal, 10 mg/kg IP dose, 4 hour): 2.05 µM | Kp uu at 1 h ([1]; male, Sprague-Dawley, rat, brain/plasma (unbound), 10 mg/kg IP dose, 1 hour): 0.53 | Kp uu at 4 h ([1]; male, Sprague-Dawley, rat, brain/plasma (unbound), 10 mg/kg IP dose, 4 hour): 0.67 | dose of MET required for convulsion (Male Sprague-Dawley rats [2]; pretreated with 10 mg/kg i.p., PTZ infused i.v.): 71 mg/kg | effect on seizure threshold to PTZ (Male Sprague-Dawley rats [2]; test compound 3 to 60 mg/kg, diazepam 0.1 to 1 mg/kg i.p.): significantly increased the seizure threshold to PTZ; also recorded: larger maximal effect | concentration in the blood relative to HZ-166 ([3]; Cmax, 10 mg/kg P.O., KRM-II-81 in rats vs HZ-166 in mice): ~500 times | Tmax ([3]; rat, blood, po, 10 mg/kg P.O., rats): 1.3 h | Cmax ([3]; rat, blood, po, 10 mg/kg P.O., rats, read-out: Cmax (highest concentration found in blood)): 1750 ng/mL | concentration at 1 h ([3]; rat, brain (unbound), 10 mg/kg oral dose, one hour after dose, rats stated for KRM-II-81, read-out: brain unbound concentration ([brain]u)): 644 ng/g | fraction unbound ([3]; rat, 10 mg/kg oral dose, brain, read-out: free fraction): 0.18 | sedation observed in marble burying assay (Male NIH Swiss mice; 10 and 30 mg/kg i.p.): without observed signs of sedation | anxiolytic activity in marble burying assay (Male NIH Swiss mice; mouse, in vivo): better anxiolytic than HZ-166; also recorded: good activity in the marble burying | statistical significance of antihyperalgesic effect (Male Sprague-Dawley rats [4]; KRM-II-81 30 mg/kg at one hour, gabapentin 50 mg/kg): able to reach significance | antihyperalgesic activity, von Frey after SNL (Male Sprague-Dawley rats [4]; KRM-II-81 30 mg/kg, gabapentin 50 mg/kg i.p.): active as antihyperalgesics | pain threshold (force before removing paw) (Male Sprague-Dawley rats [4]; from 1-2 hours, vehicle ˜5 g): ~12 g | substrate of CYP3A4 (CYP3A4): not found to be a substrate
